Drawing on ChEMBL document CHEMBL5725252, “Spirocyclic dihydro-thiazine and dihydro-oxazine BACE inhibitors, and compositions and uses thereof” (2016), this text covers IC50 for one molecule.

Assay [1] has as its target T1, Beta-secretase 1 (Homo sapiens, UniProt P56817). Kind of assay: FP Assay: Compounds are also assessed for BACE1 and Cathepsin D activity using an FP Assay. Compounds to be assessed (e.g. compounds as described in the above examples) are serially diluted 1:3 with DMSO and each concentration point is transferred to a 96 well plate, 6 uL per well, followed by addition of 194 uL of assay buffer (100 mM sodium acetate, pH 4.5 with 0.001% Tween-20). A 10 uL compound sample from this plate is transferred to a well of a 384 well plate and combined with 10 uL per well of BACE1 enzyme (0.3 nM in assay buffer) or Cathepsin D enzyme (1.8 nM in assay buffer) and the plate is incubated at room temperature for 30 minutes.

Assay [2] deals with T1, Beta-secretase 1. Kind of assay: AlphaScreen Assay: BACE1 activity can be assessed in an AlphaScreen® assay. Compounds to be assessed (e.g. compounds as described in the above examples) are serially diluted 1:4 in DMSO, then plated by diluting 10 μL of compound with 40 μl of assay buffer (1×PBS, 0.01% Tween-20, pH 7.0, 0.05% BSA). The diluted compound is transferred (4 μL per well) to a […] well assay plate and 4 μL of BACE1 enzyme (20 mg/mL) is added and incubated for 15 minutes. This assay uses a probe that is a BACE1 binding sight ligand linked to biotin, which can be displaced by test compound dependent on compound binding affinity. This of biotinylated probe (4 μL) is added and incubated for 1 hour, followed with 4 μL of donor and acceptor bead mixture and incubated for 2 hours. The fluorescent signal is read on a plate reader and the value as a function of compound concentration is used to determine the IC50. Background: Alpha assays give light when donor and acceptor beads are brought close together.

T1 sequence (P56817 whole entry): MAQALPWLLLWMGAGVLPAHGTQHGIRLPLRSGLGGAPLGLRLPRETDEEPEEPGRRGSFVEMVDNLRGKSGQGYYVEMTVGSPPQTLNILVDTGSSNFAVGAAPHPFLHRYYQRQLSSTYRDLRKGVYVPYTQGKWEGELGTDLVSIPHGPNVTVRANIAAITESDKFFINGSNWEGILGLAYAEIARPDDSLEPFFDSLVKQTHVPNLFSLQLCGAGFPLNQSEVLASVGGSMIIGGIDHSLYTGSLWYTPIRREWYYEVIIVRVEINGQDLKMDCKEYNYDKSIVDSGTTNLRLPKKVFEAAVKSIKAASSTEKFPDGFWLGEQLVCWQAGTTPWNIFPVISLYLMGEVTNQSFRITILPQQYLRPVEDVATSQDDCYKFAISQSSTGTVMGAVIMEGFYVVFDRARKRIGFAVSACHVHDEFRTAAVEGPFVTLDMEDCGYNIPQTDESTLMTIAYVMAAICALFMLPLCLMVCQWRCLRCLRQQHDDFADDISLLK

With `C[C@@]1(c2cc(/C=C/c3ccc(F)cc3)ccc2F)CC2(CCC(F)(F)CC2)OC(N)=N1`, the results for the concentration for half-maximal inhibition (IC50) on Beta-secretase 1 [1] and on Beta-secretase 1 [2] were 13.1 µM and 1960 nM, respectively.
